Consider 1 molecule from patent publication US6004952A, “Micacocidin derivatives” (Shinogi & Co., Ltd., priority 1996, dated 1999).

Structures are written as SMILES. ≈ marks a conversion by molar mass, not a printed value.

For test [1], the system named is M. gallisepticum. Briefly: MIC, liquid dilution method, Mycoplasma gallisepticum. As to conditions: Mycoplasmoides gallisepticum.
Another test has as its system E. avium. Kind of test: MIC, agar dilution method, E. avium. Conditions: Enterococcus avium. For orientation: Agar dilution tests growth on a series of plates holding different concentrations.
Test [2] concerns M. gallisepticum. Kind of test: In vivo evaluation test for M. gallisepticum in chickens (air-sac lesions). As to conditions: 6 chickens tested.
For a further test, the system named is Candida albicans. Briefly: Antifungal activity, micro-liquid dilution method, Candida albicans. It is filed as cell-based, Candida albicans strain Ca-15. As to conditions: 24 hours, 30° C. As to the method: (§1) Antifungal activities of the compounds to Candida albicans (strain Ca-15) and Asperilhm fumigatus (strain MA), representative pathogenic fungi, were determined by micro-liquid dilution method using 96-well microplates. A fungal suspension stored under freezing was adjusted to 1×1 O^5 CFU/ml by medium, of which 100 μl portions were charged into each well. The compound of the present invention was dissolved in dimethylsulfoxide (DMSO). Using the resultant solution, 2-fold dilution series were prepared together with the fungal suspension charged into the wells. YNB medium and RPMI medium were used. After cultured for 24 hours at 30° C., evaluation was performed by detecting the turbidity (wave length: 595 nm) using microplate reader.

In another test the test system is Aspergillus fumigatus. Briefly: Antifungal activity, micro-liquid dilution method, Aspergillus fumigatus. In kind it is cell-based, Aspergillus fumigatus strain MA. As to conditions: 24 hours, 30° C. As to the method:
as §1

Another test relates to M. pneumoniae. Kind of test: MIC, liquid dilution method, Mycoplasma pneumoniae. As to conditions: Mycoplasmoides pneumoniae.
Another test deals with Branhamella catarrhalis. Briefly: MIC, Branhamella catarrhalis. It is filed as cell-based. As to conditions: Moraxella catarrhalis; B. catarrhalis A 25238. How it is done: Thus, sensitivity-disc medium (Nissui) was used as a sensitivity determination medium, to which about 1 μl of 10^6 CFU/ml of the bacterial suspension was inoculated.
For the next test, the system named is C. trachmatis. Briefly: MIC, C. trachmatis. In kind it is cell-based. As to conditions: C. trachmatis D/UW-3/CX.
In a further test the test system is M. hyopneumoniae. Briefly: MIC, liquid dilution method, Mycoplasma hyopneumoniae. As to conditions: Mesomycoplasma hyopneumoniae.

Consider `CCCCCc1cccc(O)c1C1=NC(C2SCC(C(O)C(C)(C)C3=NC(C)(C(=O)O)CS3)N2C)CS1` (stereo not shown) [Compound 9], for which the MIC with M. gallisepticum [1] was 0.2 µg/mL (≈ 0.353 µM); with E. avium it was 1.56 µg/mL (≈ 2.76 µM); against M. pneumoniae, 0.00625 µg/mL (≈ 0.011 µM); in the test with Branhamella catarrhalis, 3.13 µg/mL (≈ 5.53 µM); against C. trachmatis, 16 µg/mL (≈ 28.3 µM); against M. hyopneumoniae, 0.025 µg/mL (≈ 0.0442 µM). Also, the “air-sac lesions (the number of chickens): (+) slight” value is listed as 0 in the test with M. gallisepticum [2] (25 mg/kg × 1, orally); 1 in the test with M. gallisepticum [2] (50 mg/kg × 1, orally); 0 in the test with M. gallisepticum [2] (100 mg/kg × 1, orally). In addition, the “air-sac lesions (the number of chickens): (++-+++) moderate to severe” value is 2 in the test on M. gallisepticum [2] (25 mg/kg × 1, orally); 1 in the test on M. gallisepticum [2] (50 mg/kg × 1, orally); 1 in the test on M. gallisepticum [2] (100 mg/kg × 1, orally). Moreover, the “air-sac lesions (the number of chickens): (-) non” value was 4 in the test on M. gallisepticum [2] (25 mg/kg × 1, orally); 4 in the test on M. gallisepticum [2] (50 mg/kg × 1, orally); 5 in the test with M. gallisepticum [2] (100 mg/kg × 1, orally). For the same molecule, the “number of chickens having lesions” value with M. gallisepticum [2] (25 mg/kg × 1, orally) was 2; in the test on M. gallisepticum [2] (50 mg/kg × 1, orally) it was 2; in the test with M. gallisepticum [2] (100 mg/kg × 1, orally), 1. Moreover, the “Antifungal activities: IC50” value in the test on Candida albicans (RPMI medium) was 1.6 µg/mL; with Candida albicans (YNB medium), 6.3 µg/mL; with Aspergillus fumigatus (RPMI medium), 0.2 µg/mL; in the test with Aspergillus fumigatus (YNB medium), 3.2 µg/mL.

One may read the MIC as the lowest concentration that inhibits growth of the organism. Low values mean a more susceptible organism, high ones a less susceptible organism.
